From patent US6579882B2, “Cell adhesion-inhibiting antiinflammatory compounds” (Abbott Laboratories, priority 1998, dated 2003) come the findings set out here.

The test system of one data set is E-Selectin. As to the kind of experiment: CAM ELISA: E-selectin expression on TNF-stimulated HUVECs. To be noted: 1 μM compound, primary human umbilical vein endothelial cells, compound 24 hours, then TNF 5 ng/mL 6 hours; for inhibition at 1 µM: Homo sapiens, Endothelial cell. The data set is classed as cell-based. How it is done:
(§1) Pooled primary human umbilical vein endothelial cells (HtVEC's) (Clonetics) between passages 3 and 7 were plated in 96-well plates (Costar), 100 μL/well, 5×10^4 cells/mL in Clonetics EBM/2% FBS/EGF/Bovine brain extract/gentamicin in the absence of hydrocortisone. The following day, compounds of the invention were added in 10 μL/well medium, and the plates were incubated at 37° C. 24 hours after compound addition, TNF (Gibco/BRL) in 10 μL/well medium was added to a final concentration of 5 ng/mL, and the cells were incubated an additional 6 hours at 37° C. Then media was removed, and the plates were washed once with D-PBS (Gibco/BRL) and treated with primary antibodies (Becton Dickinson, City), 100 μL/well in D-PBS/2% BSA (Sigma)/0.01% azide. Primary antibodies at an initial concentration of 1 mg/mL were used at the following dilutions: anti-ELAM-1, 1:2000, anti-ICAM-1, 1:2000 and anti-VACM-1, 1:3000. Plates were stored overnight at 4° C., washed 3 times with D-PBS, and treated with secondary antibody (Jackson Labs), 100 μL/well 1:8000 dilution HRP-conjugated donkey anti-mouse IgG(H+L) in D-PBS/2%BSA. Plates were incubated a minimum of 1 hour at room temperature, washed 3 times with D-PBS and treated with 100 μL of orhto-phenylene diamine-2 HCl reagent per well. Plates were developed approximately 15 minutes and neutralized with 100 μL/well 1N sulfuric acid. Absorbance was read at 490 nm.

In the next data set the test system is ICAM-1. As to the kind of experiment: CAM ELISA: ICAM-1 expression on TNF-stimulated HUVECs. The data set is classed as cell-based. To be noted: 1 μM compound, primary human umbilical vein endothelial cells, compound 24 hours, then TNF 5 ng/mL 6 hours; for inhibition at 1 µM: Homo sapiens, Endothelial cell. On the procedure:
as §1

For a further data set, the system named is VCAM-1. Put plainly: CAM ELISA: VCAM-1 expression on TNF-stimulated HUVECs. The note with it: 1 μM compound, primary human umbilical vein endothelial cells, compound 24 hours, then TNF 5 ng/mL 6 hours; for inhibition at 1 µM: Homo sapiens, Endothelial cell. The class given is cell-based. On the procedure:
as §1

In the case of “4-(4-Chlorobenzoyl)-N-methylthieno[2,3-c]pyridine-2-carboxamide [Example 237I]”, the “CAM ELISA % Inhibition at 1 μM E-Selectin” value in the data set on E-Selectin was determined as 71%. Further, the “CAM ELISA % Inhibition at 1 μM ICAM-1” value in the data set on ICAM-1 is 77%. The “CAM ELISA % Inhibition at 1 μM VCAM-1” value in the data set on VCAM-1 is on record as 54%.
In the case of `Cc1ccc(Sc2cncc3sc(C(N)=O)cc23)cc1` [Example 19, 4-[(4-methylphenyl)thio]thieno[2,3-c]pyridine-2-carboxamide], the inhibition (usually the change of the read-out against control, counted positive when it falls) at 1 µM is 79% in the data set with E-Selectin, 67% with ICAM-1 and 41% in the data set on VCAM-1.
Regarding `Cc1ccc(Sc2c(/C=C/C(N)=O)sc3cnccc23)cc1` [Example 32], in the data set with E-Selectin, the “CAM ELISA % Inhibition at 1 μM E-Selectin” value stood at 75%. In addition, in the data set with ICAM-1, the “CAM ELISA % Inhibition at 1 μM ICAM-1” value is reported as 63%. In the data set on VCAM-1, the “CAM ELISA % Inhibition at 1 μM VCAM-1” value was found to be 41%.
For `Cc1occc1Sc1cncc2sc(C(N)=O)cc12` [Example 53, 4-[(2-methyl-3-fiuranyl)thio]thieno[2,3-c]piridine-2-carboxamide] the same measures were 70%, 67% and 48%.
As to `Cc1ccc(Oc2cncc3sc(C(N)=O)cc23)cc1` [Example 60, 4-(4-methylphenoxy)thieno[2,3-c]pyridine-2-carboxamide], the inhibition at 1 µM in the data set on E-Selectin amounted to 74%; in the data set with ICAM-1, 71%; in the data set with VCAM-1, 42%.
For `CCOC(=O)c1cccc(Oc2cncc3sc(C(N)=O)cc23)c1` [Example 79, ethyl 3-[[2-(aminocarbonyl)thieno[2,3-c]pyridin-4-yl]oxy]benzoate] the same measures were 66%, 63% and 38%.
On to `O=C(Nc1cc2c(Oc3ccc(Cl)cc3)cncc2s1)OC1CCOC1` (centres unmarked) [Example 89, N-(4-(4-chlorophenoxy)thieno[2,3-c]pyridin-2-yl)-O-(3-tetrahydrofuranyl)carbamate], for which the “CAM ELISA % Inhibition at 1 μM E-Selectin” value in the data set on E-Selectin came out at 62%. The “CAM ELISA % Inhibition at 1 μM ICAM-1” value in the data set with ICAM-1 turned out to be 64%. In addition, the “CAM ELISA % Inhibition at 1 μM VCAM-1” value with VCAM-1 worked out at 50%.
Regarding `NC(=O)c1cc2c(-c3ccc(C(F)(F)F)cc3)cncc2s1` [Example 95, 4-[4-(trifluoromethyl)phenyl]thieno[2,3-c]pyridine-2-carboxamide], the inhibition at 1 µM in the data set with E-Selectin came out at 85%; with ICAM-1, 71%; with VCAM-1, 61%.
In the case of `C=C(c1ccccc1)c1cncc2sc(C(N)=O)cc12` [Example 102, 4-(1-phenylethenpl)thieno[2,3-c]pyridine-2-carboxamide], the “CAM ELISA % Inhibition at 1 μM E-Selectin” value in the data set on E-Selectin was determined as 78%. For the same compound, the “CAM ELISA % Inhibition at 1 μM ICAM-1” value in the data set on ICAM-1 was 68%. Besides, in the data set on VCAM-1, the “CAM ELISA % Inhibition at 1 μM VCAM-1” value is listed as 53%.
Regarding `CN(C)C(=O)c1cc2c(Oc3ccc(Cl)cc3)cncc2s1` [Example 104, 4-(4-chlorophenoxy)-N,N-dimethylthieno[2,3-c]pyridine-2-carboxamide], the inhibition at 1 µM in the data set with E-Selectin was 78%; in the data set with ICAM-1, 72%; in the data set with VCAM-1, 53%.
Consider `CN1CCN(C(=O)c2cc3c(Oc4ccc(Cl)cc4)cncc3s2)CC1` [Example 110, 1-[[4-(4-chlorophenoxy)thieno[2,3-c]pyridin-2-yl]carbonyl]-4-methylpiperazine], for which the inhibition at 1 µM in the data set on E-Selectin is 44%; in the data set with ICAM-1, 48%; in the data set with VCAM-1, 39%.
For `O=C(NCCN1CCOCC1)c1cc2c(Oc3ccc(Cl)cc3)cncc2s1` [Example 119, 4-(4-chlorophenoxy)-N-[2-(4-morpholinyl)ethyl]thieno[2,3-c]pyridine-2-carboxamide] the same measures were 59%, 61% and 36%.
For `NS(=O)(=O)c1cc2c(Oc3ccc(Cl)cc3)cncc2s1` [Example 120, 4-(4-Chlorophenoxy)thieno[2,3-c]pyridine-2-sulfonamide], in that order: 72%, 72% and 49%.
For `COc1ccccc1-c1cc2c(Oc3ccc(Cl)cc3)cncc2s1` [Example 124, 4-(4-chlorophenoxy)-2-(2-methoxyphenyl)thieno[2,3-c]pyridine] the same measures were 18%, 29% and 26%.
For `Cc1c(C(N)=O)sc2cncc(Oc3ccc(Cl)cc3)c12` [Example 125, 4-(4-Chlorolphenoxy)-3-methylthienol[2,3-c]pyridine-2-carboxamide], the “CAM ELISA % Inhibition at 1 μM E-Selectin” value in the data set on E-Selectin is listed as 72%. Moreover, the “CAM ELISA % Inhibition at 1 μM ICAM-1” value with ICAM-1 is listed as 69%. Besides, the “CAM ELISA % Inhibition at 1 μM VCAM-1” value in the data set with VCAM-1 is recorded as 44%.
In the case of `Cc1ccc(Sc2ccnc3cc(C(N)=O)sc23)cc1` [Example 135, 7-[(4-methylphenyl)thio]thieno[3,2-b]pyridine-2-carboxamide], the inhibition at 1 µM in the data set on E-Selectin was 29%; in the data set on ICAM-1 it was 22%; in the data set on VCAM-1 it was 34%.
Take `O=C(O)CNC(=O)c1cc2c(Oc3ccc(Cl)cc3)cncc2s1` [Example 159]: the “CAM ELISA % Inhibition at 1 μM E-Selectin” value in the data set on E-Selectin is 30%. Moreover, the “CAM ELISA % Inhibition at 1 μM ICAM-1” value in the data set on ICAM-1 amounted to 45%. For the same compound, in the data set with VCAM-1, the “CAM ELISA % Inhibition at 1 μM VCAM-1” value amounted to 13%.
As for `NC(=O)CNC(=O)c1cc2c(Oc3ccc(Br)cc3)cncc2s1` [Example 161, N-(2-Amino-2-oxoethyl)-4-(4-bromophenoxy)thieno[2,3-c]pyridine-2-carboxamide], the figures for the inhibition at 1 µM in the data set on E-Selectin, with ICAM-1 and in the data set with VCAM-1 were 51%, 58% and 51%, respectively.
For `NC(=O)c1cc2c(Oc3cccnc3)cncc2s1` [Example 170, 4-(3-Pyridinyloxy)thieno[2,3-c]pyridine-2-carboxamide], the figures for the inhibition at 1 µM in the data set with E-Selectin, in the data set on ICAM-1 and in the data set on VCAM-1 were 66%, 67% and 53%, respectively.
As for `CNC(=O)c1cc2c(Oc3ccc(C(F)(F)F)cc3)cncc2s1` [Example 183, N-Methyl-4-[4-(trifluoromethyl)phenoxy]thieno[2,3-c]pyridine-2-carboxamide], the inhibition at 1 µM with E-Selectin is 63%; in the data set on ICAM-1 it was 69%; in the data set on VCAM-1, 48%.
For `NC(=O)c1cc2c(Oc3cccc(C(F)(F)F)c3)cncc2s1` [Example 184, 4-[3-(Trifluoromethyl)phenoxy]thieno[2,3-c]pyridine-2-carboxamide] the same measures were 52%, 56% and 30%.
For `N#Cc1ccc(Oc2cncc3sc(C(N)=O)cc23)cc1` [Example 187, 4-(4-Cyanophenoxy)thieno[2,3-c]pyridine-2-carboxamide], in that order: 78%, 72% and 54%.
`Clc1ccc(Oc2cncc3sc(-c4cccs4)cc23)cc1` [Example 292, 4-(4-Chlorophenoxy)-2-(2-thienyl)thieno[2,3-c]pyridine]: the melting point – broadly, the temperature of the solid-liquid transition – was in the range of 101 to 103 °C.
In turn, `NC(=O)c1csc(-c2cc3c(Oc4ccc(Cl)cc4)cncc3s2)n1` [Example 293, 2-[4-(4-Chlorophenoxy)thieno[2,3-c]pyridin-2-yl]-1,3-thiazole-4-carboxamide] had a melting point of 215 to 218 °C.
With `Clc1ccc(Oc2cncc3sc(C4=NCCO4)cc23)cc1` [Example 296, 4-(4-Chlorophenoxy)-2-(4,5-dihydro-1,3-oxazol-2-yl)thieno[2,3-c]pyridine], the melting point is 158 to 160 °C (dec.).
In turn, `Clc1ccc(Oc2cncc3sc(C4=NCCN4)cc23)cc1` [Example 298, 4-(4-Chlorophenoxy)-2-(4,5-dihydro-1H-imidazol-2-yl)thieno[2,3-c]pyridine] had a melting point of 154 to 155 °C.
Still for that read-out and setting: for `Cc1c(C(N)=O)sc2cncc(Oc3ccc(Br)cc3)c12` [Example 304, 4-(4-Bromophenoxy)-3-methylthieno[2,3-c]pyridine-2-carboxamide] the value was 177 to 178 °C.
The same measure, in the same setting: the result for `NC(=O)c1cc2c(Oc3ccc(C(F)(F)F)cc3)cnc(Cl)c2s1` [Example 318, 7-Chloro-4-[4-(trifluoromethyl)phenoxy]thieno[2,3-c]pyridine-2-carboxamide] reads 175 to 176 °C; that for `CNC(=O)c1cc2c(Oc3ccc(C(F)(F)F)cc3)cnc(Cl)c2s1` [Example 319, 7-Chloro-N-methyl-4-[4-(trifluoromethyl)phenoxy]thieno[2,3-c]pyridine-2-carboxamide], 178 to 179 °C; that for `NC(=O)c1cc2c(Oc3ccc(Cl)cc3)c[nH]c(=O)c2s1` [Example 323, 4-(4-Chlorophenoxy)-7-oxo-6,7-dihydrothieno[2,3-c]pyridine-2-carboxamide], above 250 °C.
